In ChEMBL document CHEMBL1201862, “PubChem BioAssay data set” (2004):
Calls of active or inactive are those of the source.

Columns and labels:
HeLa = experiment: HeLa cell cytotoxicity, dose response, cytotoxicity control for MITF activator project, CellTiter-Glo luminescence, cherry-pick samples (AID 540259); assay type: functional, cell-based; details: Homo sapiens
[1] = target: Peroxisome proliferator-activated receptor gamma/Nuclear receptor coactivator 1 (Homo sapiens, UniProt P37231); experiment: TR-FRET dose response biochemical High Throughput Screening assay for agonists of the steroid receptor coactivator 1 (SRC-1) recruitment by the peroxisome proliferator-activated receptor gamma (PPAR gamma): non-selective agonists. [Related pubchem assays (depositor defined):AID1300, AID1808, AID504735, AID631]; assay type: protein assay
[2] = target: Peroxisome proliferator-activated receptor gamma/Nuclear receptor coactivator 3 (Homo sapiens, UniProt P37231); experiment: TR-FRET dose response biochemical High Throughput Screening assay for agonists of the steroid receptor coactivator 3 (SRC-3) recruitment by the peroxisome proliferator-activated receptor gamma (PPAR gamma): non-selective agonists. [Related pubchem assays: 1301 (Confirmation screen.), 1048 (Primary screen.)]; assay type: functional
[3] = target: Peroxisome proliferator-activated receptor gamma/Nuclear receptor coactivator 2 (Homo sapiens, UniProt P37231); experiment: TR-FRET dose response biochemical High Throughput Screening assay for agonists of the steroid receptor coactivator 2 (SRC-2) recruitment by the peroxisome proliferator-activated receptor gamma (PPAR gamma): non-selective agonists. [Related pubchem assays: 1297, 1032 ]; assay type: functional
[4] = target: Glucose-6-phosphate 1-dehydrogenase (Homo sapiens, UniProt P11413); experiment: human G6PD enzyme inhibitors, dose response, selectivity assay for P. falciparum G6PD inhibitor project, biochemical, fluorescence (AID 504792); assay type: functional
[5] = target: T1, Histone-lysine N-methyltransferase NSD2 (Homo sapiens, UniProt O96028); assay type: biochemical
T1 sequence (O96028 whole entry): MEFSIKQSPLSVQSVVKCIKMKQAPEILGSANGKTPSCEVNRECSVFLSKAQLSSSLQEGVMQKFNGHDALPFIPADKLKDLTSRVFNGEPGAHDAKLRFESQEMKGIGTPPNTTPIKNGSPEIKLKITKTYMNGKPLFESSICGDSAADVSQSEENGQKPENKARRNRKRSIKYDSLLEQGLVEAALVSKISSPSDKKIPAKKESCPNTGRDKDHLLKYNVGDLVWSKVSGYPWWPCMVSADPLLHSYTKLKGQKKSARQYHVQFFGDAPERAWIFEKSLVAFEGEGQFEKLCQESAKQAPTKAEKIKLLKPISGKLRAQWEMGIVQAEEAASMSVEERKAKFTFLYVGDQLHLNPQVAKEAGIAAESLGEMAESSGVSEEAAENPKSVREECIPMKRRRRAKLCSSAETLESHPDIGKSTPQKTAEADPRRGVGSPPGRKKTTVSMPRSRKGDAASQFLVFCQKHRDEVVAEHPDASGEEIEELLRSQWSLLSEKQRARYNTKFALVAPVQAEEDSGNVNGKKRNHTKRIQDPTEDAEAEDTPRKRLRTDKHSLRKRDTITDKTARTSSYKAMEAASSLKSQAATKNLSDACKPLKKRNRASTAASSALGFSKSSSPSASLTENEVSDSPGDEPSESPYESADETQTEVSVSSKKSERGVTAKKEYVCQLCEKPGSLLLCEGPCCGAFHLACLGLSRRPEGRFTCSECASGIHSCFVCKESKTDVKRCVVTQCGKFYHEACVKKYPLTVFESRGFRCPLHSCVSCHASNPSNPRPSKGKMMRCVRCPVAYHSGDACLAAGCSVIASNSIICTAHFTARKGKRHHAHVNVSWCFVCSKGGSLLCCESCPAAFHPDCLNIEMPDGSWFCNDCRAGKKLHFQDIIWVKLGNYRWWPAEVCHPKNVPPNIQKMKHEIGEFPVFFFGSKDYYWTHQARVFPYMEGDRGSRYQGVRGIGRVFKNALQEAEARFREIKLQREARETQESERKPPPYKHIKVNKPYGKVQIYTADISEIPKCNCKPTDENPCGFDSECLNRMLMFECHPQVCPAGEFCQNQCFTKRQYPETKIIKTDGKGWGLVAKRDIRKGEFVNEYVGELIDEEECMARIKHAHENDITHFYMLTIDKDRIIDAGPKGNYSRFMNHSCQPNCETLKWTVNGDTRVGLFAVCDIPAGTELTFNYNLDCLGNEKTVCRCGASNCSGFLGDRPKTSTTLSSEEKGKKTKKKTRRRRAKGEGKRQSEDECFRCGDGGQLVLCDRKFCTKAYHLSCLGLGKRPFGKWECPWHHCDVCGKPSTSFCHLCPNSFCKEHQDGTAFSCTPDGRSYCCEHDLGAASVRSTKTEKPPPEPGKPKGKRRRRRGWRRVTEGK

[6] = HEp-2 cell cytotoxicity, dose response, cytotoxicity control for RSV inhibitor project, HTS (AID 2410); assay type: functional; details: human respiratory syncytial virus
H9c2 = experiment: cells; assay type: functional, cell-based; details: Rattus norvegicus, H9c2, Myocardium
Large T antigen = Large T antigen (Simian virus 40, UniProt P03070); assay type: functional, Betapolyomavirus macacae;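 note: Confirmatory-stage PubChem screen for compounds that inhibit SV40 T antigen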
Estrogen receptor = target: T2, Estrogen receptor (Homo sapiens, UniProt P03372);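 note: potency for inhibiting coactivator peptide recruitment to the receptor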
T2 sequence (P03372 whole entry): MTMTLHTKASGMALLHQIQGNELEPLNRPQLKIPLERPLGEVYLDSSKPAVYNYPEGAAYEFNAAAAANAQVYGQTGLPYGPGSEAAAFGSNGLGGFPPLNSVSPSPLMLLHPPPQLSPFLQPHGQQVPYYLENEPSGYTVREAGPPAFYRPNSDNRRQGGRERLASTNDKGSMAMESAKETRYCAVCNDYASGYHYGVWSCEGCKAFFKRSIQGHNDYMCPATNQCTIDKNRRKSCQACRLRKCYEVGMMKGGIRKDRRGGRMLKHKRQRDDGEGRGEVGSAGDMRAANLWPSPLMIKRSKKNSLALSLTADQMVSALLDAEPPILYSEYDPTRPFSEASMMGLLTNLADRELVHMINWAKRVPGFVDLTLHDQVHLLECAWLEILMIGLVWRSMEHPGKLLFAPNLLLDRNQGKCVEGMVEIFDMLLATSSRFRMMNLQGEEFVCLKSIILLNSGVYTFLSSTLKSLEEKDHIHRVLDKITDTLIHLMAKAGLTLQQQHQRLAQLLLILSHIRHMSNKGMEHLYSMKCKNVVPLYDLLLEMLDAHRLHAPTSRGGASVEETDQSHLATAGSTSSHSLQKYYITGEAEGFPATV

Estrogen receptor beta = Estrogen receptor beta (Homo sapiens, UniProt Q92731);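 note: recombinant ER-beta bound to coactivator SRC1 peptide in presence of estradiol agonist; inhibitors block coactivator peptide binding and lower the FRET signal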
[7] = target: T3, Rac GTPase-activating protein 1 (Homo sapiens, UniProt Q9H0H5); experiment: MgcRacGAP GTPase-activating activity inhibitors, confirmation, biochemical, ADP Hunter fluorescence, primary and confirmatory (AID 624330); assay type: functional
T3 sequence (Q9H0H5 whole entry): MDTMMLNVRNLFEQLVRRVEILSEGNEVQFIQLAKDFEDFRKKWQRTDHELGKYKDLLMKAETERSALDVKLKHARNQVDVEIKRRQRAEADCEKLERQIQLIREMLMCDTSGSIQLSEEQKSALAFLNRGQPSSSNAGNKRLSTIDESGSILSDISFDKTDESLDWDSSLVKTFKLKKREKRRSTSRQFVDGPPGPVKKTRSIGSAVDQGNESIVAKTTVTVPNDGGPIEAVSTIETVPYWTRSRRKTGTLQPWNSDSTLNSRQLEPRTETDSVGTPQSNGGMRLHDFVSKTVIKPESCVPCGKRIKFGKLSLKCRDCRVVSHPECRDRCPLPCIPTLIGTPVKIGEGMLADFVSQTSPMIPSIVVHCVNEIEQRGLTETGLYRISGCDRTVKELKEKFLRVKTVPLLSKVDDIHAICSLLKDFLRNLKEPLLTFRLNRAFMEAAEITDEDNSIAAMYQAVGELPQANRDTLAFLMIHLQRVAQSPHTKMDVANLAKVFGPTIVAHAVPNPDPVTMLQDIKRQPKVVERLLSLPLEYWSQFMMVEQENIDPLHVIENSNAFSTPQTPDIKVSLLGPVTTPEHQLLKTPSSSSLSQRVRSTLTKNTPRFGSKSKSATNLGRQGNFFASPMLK

[8] = target: T4, Heat shock factor protein 1 (Mus musculus, UniProt P38532); experiment: inhibition of MG132-induced HSE-luciferase signal, confirmation, cell-based, NIH3T3, luminescence, dose retest (AID 2382); assay type: functional;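 note: NIH3T3 fibroblasts with HSF1-driven luciferase reporter stressed by proteasome inhibitor MG132; luminescence from HSF1-driven luciferase expression after 8 hours of MG132 stress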
T4 sequence (P38532 whole entry): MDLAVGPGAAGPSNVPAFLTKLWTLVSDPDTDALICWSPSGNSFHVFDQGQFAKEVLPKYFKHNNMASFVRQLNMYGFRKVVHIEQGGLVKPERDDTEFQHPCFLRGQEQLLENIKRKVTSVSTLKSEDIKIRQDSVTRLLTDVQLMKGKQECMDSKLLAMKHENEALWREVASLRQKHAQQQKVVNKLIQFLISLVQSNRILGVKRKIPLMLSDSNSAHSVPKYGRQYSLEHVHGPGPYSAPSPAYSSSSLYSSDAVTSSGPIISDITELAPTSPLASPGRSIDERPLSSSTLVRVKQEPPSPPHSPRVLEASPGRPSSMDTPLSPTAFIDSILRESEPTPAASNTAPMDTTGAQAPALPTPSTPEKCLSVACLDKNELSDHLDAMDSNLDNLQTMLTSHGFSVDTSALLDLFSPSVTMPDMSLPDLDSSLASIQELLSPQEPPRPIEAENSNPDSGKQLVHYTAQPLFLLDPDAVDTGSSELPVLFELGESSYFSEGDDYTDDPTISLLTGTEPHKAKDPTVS

Cytochrome P450 1A2 = target: T5, Cytochrome P450 1A2 (Homo sapiens, UniProt P05177);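 note: PubChem cytochrome P450 panel assay, CYP1A2 panel member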
T5 sequence (P05177 whole entry): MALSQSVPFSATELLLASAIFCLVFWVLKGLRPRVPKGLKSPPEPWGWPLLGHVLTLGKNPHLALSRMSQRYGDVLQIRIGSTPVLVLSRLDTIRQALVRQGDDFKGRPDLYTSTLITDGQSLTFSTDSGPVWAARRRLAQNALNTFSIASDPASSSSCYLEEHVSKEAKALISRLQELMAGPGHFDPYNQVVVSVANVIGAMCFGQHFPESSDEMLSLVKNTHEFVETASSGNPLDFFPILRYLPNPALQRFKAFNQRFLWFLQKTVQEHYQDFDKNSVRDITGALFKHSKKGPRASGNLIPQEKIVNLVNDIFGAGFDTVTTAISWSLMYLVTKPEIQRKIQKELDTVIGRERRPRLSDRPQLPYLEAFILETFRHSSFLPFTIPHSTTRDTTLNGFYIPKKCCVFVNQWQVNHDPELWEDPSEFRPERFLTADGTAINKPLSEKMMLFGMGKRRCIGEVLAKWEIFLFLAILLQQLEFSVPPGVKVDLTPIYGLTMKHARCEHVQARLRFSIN

Cytochrome P450 2C9 = Cytochrome P450 2C9 (Homo sapiens, UniProt P11712)
Cytochrome P450 3A4 = Cytochrome P450 3A4 (Homo sapiens, UniProt P08684);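 note: CYP3A4 tested as one member of a cytochrome P450 panel screen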

Sequence of Peroxisome proliferator-activated receptor gamma/Nuclear receptor coactivator 1 (P37231 whole entry): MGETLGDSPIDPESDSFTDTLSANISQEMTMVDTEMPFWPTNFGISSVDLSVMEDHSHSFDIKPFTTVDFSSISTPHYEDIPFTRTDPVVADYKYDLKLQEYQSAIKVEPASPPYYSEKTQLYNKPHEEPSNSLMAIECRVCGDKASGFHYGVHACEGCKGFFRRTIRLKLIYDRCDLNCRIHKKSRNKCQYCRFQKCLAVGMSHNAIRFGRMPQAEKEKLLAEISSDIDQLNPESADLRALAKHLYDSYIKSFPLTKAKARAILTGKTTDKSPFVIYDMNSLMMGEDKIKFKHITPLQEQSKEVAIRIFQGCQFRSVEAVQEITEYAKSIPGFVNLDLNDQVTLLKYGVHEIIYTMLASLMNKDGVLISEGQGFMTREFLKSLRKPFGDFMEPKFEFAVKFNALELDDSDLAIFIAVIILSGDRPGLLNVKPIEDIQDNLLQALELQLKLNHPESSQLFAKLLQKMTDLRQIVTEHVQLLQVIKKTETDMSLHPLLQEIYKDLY
Sequence of Peroxisome proliferator-activated receptor gamma/Nuclear receptor coactivator 1 (Q15788 whole entry, further chain): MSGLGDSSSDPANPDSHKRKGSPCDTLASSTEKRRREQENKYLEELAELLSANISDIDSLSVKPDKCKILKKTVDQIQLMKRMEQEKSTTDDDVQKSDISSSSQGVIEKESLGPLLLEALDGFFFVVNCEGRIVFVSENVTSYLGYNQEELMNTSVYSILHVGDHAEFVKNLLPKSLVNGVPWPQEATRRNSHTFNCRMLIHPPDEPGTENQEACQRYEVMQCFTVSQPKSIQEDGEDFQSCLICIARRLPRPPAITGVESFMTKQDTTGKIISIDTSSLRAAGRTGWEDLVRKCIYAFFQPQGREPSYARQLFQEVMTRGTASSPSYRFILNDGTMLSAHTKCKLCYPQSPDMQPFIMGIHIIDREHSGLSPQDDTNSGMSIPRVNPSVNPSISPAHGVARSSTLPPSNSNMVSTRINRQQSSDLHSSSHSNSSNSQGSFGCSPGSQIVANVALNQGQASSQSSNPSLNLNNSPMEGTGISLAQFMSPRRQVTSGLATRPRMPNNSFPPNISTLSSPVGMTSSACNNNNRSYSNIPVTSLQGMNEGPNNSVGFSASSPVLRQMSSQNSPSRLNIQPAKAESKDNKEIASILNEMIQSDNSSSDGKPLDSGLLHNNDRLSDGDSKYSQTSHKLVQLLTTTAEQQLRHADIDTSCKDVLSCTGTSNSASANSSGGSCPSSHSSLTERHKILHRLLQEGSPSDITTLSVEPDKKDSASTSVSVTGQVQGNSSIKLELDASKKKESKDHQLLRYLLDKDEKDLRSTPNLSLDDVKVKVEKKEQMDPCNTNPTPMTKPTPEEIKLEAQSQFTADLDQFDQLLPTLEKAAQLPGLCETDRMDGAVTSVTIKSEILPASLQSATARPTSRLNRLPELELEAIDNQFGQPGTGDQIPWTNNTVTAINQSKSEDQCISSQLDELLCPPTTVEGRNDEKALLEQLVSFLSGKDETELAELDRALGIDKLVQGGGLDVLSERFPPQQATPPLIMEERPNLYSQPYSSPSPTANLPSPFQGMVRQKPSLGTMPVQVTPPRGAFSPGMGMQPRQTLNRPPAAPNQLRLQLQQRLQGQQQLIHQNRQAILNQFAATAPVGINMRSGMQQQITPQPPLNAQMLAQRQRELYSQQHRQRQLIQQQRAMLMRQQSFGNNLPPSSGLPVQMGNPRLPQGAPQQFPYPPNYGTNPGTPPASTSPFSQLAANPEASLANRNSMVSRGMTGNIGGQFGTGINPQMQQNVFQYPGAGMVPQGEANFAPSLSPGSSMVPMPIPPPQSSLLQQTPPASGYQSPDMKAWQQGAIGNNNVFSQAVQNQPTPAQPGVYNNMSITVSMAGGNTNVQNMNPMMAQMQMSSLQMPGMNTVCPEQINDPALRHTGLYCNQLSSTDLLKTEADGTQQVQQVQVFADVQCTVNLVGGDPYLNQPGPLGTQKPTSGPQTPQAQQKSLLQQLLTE
Sequence of Peroxisome proliferator-activated receptor gamma/Nuclear receptor coactivator 2 (P37231 whole entry): as the sequence (P37231 whole entry) above
Sequence of Peroxisome proliferator-activated receptor gamma/Nuclear receptor coactivator 2 (Q15596 whole entry, further chain): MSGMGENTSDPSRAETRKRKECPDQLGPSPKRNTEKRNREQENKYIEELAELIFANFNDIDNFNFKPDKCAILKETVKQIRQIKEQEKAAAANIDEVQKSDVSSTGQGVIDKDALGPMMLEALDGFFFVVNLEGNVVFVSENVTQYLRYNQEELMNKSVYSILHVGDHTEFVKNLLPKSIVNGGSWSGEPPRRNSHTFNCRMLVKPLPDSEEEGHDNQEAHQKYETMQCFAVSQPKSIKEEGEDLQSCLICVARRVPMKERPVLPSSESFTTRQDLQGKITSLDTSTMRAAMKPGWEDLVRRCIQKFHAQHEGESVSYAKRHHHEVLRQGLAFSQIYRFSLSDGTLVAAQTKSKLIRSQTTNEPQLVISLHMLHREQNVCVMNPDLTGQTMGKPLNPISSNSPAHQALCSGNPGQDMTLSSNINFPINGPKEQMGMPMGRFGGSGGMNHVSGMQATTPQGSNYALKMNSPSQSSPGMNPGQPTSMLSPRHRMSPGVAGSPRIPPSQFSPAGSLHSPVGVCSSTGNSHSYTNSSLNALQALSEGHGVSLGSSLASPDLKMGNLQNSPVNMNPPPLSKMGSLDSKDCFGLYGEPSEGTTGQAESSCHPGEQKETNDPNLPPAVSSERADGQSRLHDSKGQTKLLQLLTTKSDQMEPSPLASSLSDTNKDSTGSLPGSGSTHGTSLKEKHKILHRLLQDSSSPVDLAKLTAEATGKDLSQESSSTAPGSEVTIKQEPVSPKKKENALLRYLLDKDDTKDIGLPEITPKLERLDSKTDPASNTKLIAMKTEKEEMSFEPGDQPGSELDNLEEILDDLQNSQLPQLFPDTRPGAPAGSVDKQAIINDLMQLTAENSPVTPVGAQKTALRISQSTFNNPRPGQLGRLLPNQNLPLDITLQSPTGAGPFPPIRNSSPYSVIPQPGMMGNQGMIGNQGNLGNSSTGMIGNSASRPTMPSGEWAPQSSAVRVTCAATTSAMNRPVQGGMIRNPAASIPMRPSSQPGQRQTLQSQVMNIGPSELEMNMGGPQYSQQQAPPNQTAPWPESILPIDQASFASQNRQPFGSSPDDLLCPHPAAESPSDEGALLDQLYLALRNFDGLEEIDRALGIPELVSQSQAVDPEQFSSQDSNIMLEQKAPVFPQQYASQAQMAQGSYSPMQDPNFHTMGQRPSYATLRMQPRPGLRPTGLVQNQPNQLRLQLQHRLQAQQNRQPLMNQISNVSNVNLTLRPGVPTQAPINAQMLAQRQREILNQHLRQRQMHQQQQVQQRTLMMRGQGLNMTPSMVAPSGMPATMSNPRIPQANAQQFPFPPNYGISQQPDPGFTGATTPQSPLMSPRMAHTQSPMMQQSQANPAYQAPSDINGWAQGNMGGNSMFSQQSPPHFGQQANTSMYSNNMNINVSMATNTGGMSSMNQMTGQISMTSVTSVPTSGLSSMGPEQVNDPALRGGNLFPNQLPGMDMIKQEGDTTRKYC
Sequence of Glucose-6-phosphate 1-dehydrogenase (P11413 whole entry): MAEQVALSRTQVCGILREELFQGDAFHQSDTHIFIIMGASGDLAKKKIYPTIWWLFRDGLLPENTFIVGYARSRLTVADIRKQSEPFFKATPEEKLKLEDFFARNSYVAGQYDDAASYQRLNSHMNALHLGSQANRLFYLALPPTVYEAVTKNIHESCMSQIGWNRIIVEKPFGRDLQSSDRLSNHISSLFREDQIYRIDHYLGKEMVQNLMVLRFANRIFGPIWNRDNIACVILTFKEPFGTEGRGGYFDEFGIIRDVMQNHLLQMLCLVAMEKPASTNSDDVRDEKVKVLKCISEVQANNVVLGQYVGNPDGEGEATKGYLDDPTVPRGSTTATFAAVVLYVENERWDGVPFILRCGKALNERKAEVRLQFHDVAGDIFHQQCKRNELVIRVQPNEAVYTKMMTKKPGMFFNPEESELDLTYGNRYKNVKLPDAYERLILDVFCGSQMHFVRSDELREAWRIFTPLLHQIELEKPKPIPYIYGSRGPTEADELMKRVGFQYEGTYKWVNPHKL
Sequence of Estrogen receptor beta (Q92731 whole entry): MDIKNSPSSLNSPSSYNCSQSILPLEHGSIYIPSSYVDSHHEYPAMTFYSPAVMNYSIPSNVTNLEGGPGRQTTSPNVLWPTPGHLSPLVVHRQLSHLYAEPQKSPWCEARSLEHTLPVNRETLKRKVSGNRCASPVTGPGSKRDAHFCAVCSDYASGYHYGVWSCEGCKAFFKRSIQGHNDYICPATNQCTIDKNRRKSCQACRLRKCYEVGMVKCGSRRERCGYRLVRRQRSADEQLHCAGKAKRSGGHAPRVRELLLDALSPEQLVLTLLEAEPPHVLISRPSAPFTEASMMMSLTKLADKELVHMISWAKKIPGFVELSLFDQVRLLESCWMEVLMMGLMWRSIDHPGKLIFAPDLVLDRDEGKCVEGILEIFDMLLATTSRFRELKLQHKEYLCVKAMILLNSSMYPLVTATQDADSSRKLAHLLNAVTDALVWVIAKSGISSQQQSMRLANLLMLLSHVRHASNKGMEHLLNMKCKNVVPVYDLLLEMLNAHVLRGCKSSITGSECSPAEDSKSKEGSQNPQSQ

## CC(=O)c1ccc2oc3ccccc3c(=O)c2c1
HeLa
  AC50: 41 µM (active)

## COc1c(C)cccc1C(=O)NC(=S)Nc1cccc2nsnc12
[1]
  EC50: 3.68 µM (active)
[2]
  EC50: 39.5 µM (not active)
[3]
  EC50: 4.14 µM (active)

## CCOc1ccc(NC(=O)CSc2ncnc3c2sc2ccccc23)cc1
[1]
  EC50: > 79.4 µM (inactive)
[2]
  EC50: 81.4 µM (not active)
[3]
  EC50: 32 µM (not active)

## CN1CCN(C(=S)c2ccc([N+](=O)[O-])cc2)CC1
[4]
  IC50: > 80 µM (inactive)

## CCN(CC)CCCN(Cc1cc2cc(OC)c(OC)cc2nc1O)C(=O)Nc1ccccc1
[5]
  AC50: > 20 µM (inactive)

## CSc1cnn(Cc2ccccc2)c(=O)c1SCc1ccccc1
[1]
  EC50: 3.27 µM (active)
[2]
  EC50: > 79.4 µM (not active)
[3]
  EC50: 7.94 µM (active)

## COc1ccccc1Nc1nc(-c2cccc([N+](=O)[O-])c2)cs1
[6]
  CC50: 25.1 µM (active)
cells
  IC50: 12.3 µM (active)

## CC(C)c1ccc(S(=O)(=O)N2CCN(CC(=O)c3ccc(O)c(O)c3)CC2)cc1
H9c2
  IC50: > 79 µM (inactive)
Large T antigen
  IC50: 23.6 µM (active)
[5]
  AC50: 4.68 µM (active)

## CCn1c(=O)cc(SCC(=O)NCCN2CCN(Cc3ccccc3)CC2)c2ccccc21
[1]
  EC50: > 79.4 µM (inactive)
[2]
  EC50: > 79.4 µM (not active)
[3]
  EC50: > 79.4 µM (not active)

## Cc1[nH]c(C)c(S(=O)(=O)N2CCN(c3cccc(Cl)c3)CC2)c1C(=O)N1CCCCC1
[6]
  CC50: 29.3 µM (active)
cells
  IC50: 31.5 µM (active)

## Cc1[nH]c2ccc(-c3nnc(SCC(=O)c4ccccc4F)o3)cc2c1C
[6]
  CC50: 32.8 µM (active)
Estrogen receptor
  IC50: 26 µM (active)
cells
  IC50: 40.7 µM (active)

## CN1CC2(C)CN(C(c3ccccc3)c3ccccc3)CC(C)(C1)C2O (stereo not given)
Estrogen receptor beta
  IC50: > 50 µM (not active)

## O=C1c2ccccc2/C(=C\C#Cc2ccccn2)N1c1ccccc1
HeLa
  AC50: 42.6 µM (active)

## CN(C)c1ccc2cc(S(=O)(=O)O)cc(O)c2c1
[7]
  IC50: 42.9 µM (active)
[5]
  AC50: 0.747 µM (active)

## COc1cccc(-c2c(C(=O)N/N=C/c3ccc(C)s3)nnn2-c2nonc2N)c1
[4]
  IC50: > 80 µM (inactive)
[8]
  EC50: > 195 µM (not active)

## CC(=N)/C(C#N)=C(/O)COc1ncnc2ccc(Br)cc12
Cytochrome P450 1A2
  AC50: 0.0316 µM (inconclusive)
cells
  IC50: 1.14 µM (active)
Cytochrome P450 2C9
  AC50: 11.2 µM (inconclusive)
Cytochrome P450 3A4
  AC50: 17.8 µM (inconclusive)
